Legend:
[1] = molecular target: T1, Enkephalinase (Rattus norvegicus, UniProt P07861); test: Enkephalinase inhibition, fluorometric enzyme assay; type: biochemical; conditions: enzyme partially purified from rat kidney; 50mM HEPES buffer (pH 7.4); 12 µM substrate dansyl-D-AlaGly(p-nitro)PheGly; 25°C
T1 construct: The enzyme is extracted from the microvilli fraction by using Triton X-100; from tissue; host or cells: rat kidney (microvilli fraction)
T1 sequence (P07861 1-750): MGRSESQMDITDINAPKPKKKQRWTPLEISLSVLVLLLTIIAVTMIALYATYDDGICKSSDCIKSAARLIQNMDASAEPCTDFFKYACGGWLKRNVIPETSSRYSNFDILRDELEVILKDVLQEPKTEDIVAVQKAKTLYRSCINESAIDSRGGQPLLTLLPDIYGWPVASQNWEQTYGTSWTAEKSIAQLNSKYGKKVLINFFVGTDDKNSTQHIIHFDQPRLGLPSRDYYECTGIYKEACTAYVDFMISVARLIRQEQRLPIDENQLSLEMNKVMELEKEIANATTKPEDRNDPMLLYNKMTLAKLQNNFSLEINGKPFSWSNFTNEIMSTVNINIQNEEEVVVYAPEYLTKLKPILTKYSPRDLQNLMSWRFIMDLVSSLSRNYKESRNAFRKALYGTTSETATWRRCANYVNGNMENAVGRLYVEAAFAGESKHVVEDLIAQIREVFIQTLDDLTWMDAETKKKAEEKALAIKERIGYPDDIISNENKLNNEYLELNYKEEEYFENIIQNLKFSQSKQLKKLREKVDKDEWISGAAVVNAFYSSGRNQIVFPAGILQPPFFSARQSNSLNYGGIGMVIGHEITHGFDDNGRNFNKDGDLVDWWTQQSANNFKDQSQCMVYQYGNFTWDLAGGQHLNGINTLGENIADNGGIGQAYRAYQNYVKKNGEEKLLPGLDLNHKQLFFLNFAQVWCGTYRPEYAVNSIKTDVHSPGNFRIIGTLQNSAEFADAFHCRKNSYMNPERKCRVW
Excerpt: Enkephalinase is partially purified from rat kidney. The enzyme is extracted from the microvilli fraction by using Triton X-100 according to the method of Malfroy and Schwartz [J.Biol.Chem. 259, 14365-14370 (1984)] or by using a proteolytic treatment according to the method of Almenoff and Orlowski [Biochem. 22, 590-599 (1983)]. The enzyme is further purified by anion exchange chromatography (Mono Q™ column, Pharmacia) using a Pharmacia FPLC system. The enzyme activity may be measured by the fluorometric methods of Florentin et al. [Anal.Biochem. 141, 62-69 (1984)] or of Almenoff and Orlowski [J.Neurochemistry 42, 151-157 (1984)]. The enzyme is assayed in 50mM HEPES buffer (pH 7.4) in a 3.0 mL reaction volume containing 12 µM of the substrate dansyl-D-AlaGly(p-nitro)PheGly (Km=40µM) at 25°C. The substrate (and inhibitor) is added from a concentrated stock solution in DMSO (up to 0.1 mL DMSO final volume). The enzyme in a small volume (approximately 0.1 µg of FPLC purified protein) is added to initiate the reaction and the rate of fluorescense increase is recorded continuously using a fluorometer (excitation at 339nm, emission at 562nm).

[2] = molecular target: ACE (Homo sapiens, UniProt P12821); test: ACE inhibition, spectrophotometric enzyme assay; type: biochemical; conditions: spectrophotometric substrate of Holmquist et al.; buffer system of Ryan
Excerpt: The enzymatic activity of ACE is monitored using the spectrophotometric substrate described by Holmquist et al. [Anal.Biochem. 95, 540-548 (1979)] and the buffer system described by Ryan [Methods of Enzymatic Analysis, 3rd ed., H. U. Bergmeyer, editor; vol. V, Verlag Chemie, Weinheim, 1983, pp. 20-34].

Chain of ACE (P12821 30-1306, species assumed): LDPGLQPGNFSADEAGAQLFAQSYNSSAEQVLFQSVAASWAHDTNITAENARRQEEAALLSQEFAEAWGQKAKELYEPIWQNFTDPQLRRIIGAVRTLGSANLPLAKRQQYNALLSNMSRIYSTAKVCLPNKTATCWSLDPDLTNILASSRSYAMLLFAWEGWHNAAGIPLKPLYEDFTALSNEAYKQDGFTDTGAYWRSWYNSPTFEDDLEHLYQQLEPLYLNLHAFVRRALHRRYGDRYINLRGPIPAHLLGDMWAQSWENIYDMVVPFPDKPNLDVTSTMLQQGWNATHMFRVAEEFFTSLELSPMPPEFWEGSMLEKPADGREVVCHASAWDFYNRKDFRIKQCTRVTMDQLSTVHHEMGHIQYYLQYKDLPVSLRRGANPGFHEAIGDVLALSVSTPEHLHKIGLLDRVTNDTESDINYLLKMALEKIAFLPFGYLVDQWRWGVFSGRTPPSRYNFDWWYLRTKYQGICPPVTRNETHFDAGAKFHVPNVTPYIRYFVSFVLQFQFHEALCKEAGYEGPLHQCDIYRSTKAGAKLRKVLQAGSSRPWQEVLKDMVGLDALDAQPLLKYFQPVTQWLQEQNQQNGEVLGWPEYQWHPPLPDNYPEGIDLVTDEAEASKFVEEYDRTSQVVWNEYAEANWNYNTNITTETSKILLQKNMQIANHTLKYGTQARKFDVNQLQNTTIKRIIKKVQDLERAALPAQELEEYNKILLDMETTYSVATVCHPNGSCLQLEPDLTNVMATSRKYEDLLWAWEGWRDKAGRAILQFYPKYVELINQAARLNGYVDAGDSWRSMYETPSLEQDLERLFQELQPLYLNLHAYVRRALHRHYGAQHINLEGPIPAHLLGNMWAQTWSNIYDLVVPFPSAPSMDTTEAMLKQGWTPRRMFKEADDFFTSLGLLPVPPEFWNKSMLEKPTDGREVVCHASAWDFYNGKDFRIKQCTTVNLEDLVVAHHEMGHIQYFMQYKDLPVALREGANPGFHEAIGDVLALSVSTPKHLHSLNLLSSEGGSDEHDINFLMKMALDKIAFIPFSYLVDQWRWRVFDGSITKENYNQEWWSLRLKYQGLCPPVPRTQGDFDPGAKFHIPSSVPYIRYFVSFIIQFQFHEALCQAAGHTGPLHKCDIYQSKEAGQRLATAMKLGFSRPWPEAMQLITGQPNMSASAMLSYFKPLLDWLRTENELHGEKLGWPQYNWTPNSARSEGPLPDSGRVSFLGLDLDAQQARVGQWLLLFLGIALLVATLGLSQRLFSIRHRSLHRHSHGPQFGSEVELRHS

Row | Ki [1] | Ki [2] | SMILES
1 | 0.4 nM | – | O=C(O)CC1(C(=O)N[C@H]2Cc3ccccc3[C@H]3CCC[C@@H](C(=O)O)N3C2=O)CCCC1 (relative stereo) [100,137, [4S-[4α, 7α(R*), 12bβ]]-7-[(1-Carboxymethyl-cyclopent-1-yl)carbonylamino]-1,2,3,4,6,7,8,12b-octahydro-6-oxopyrido[2,1-a][2]benzazepine-4-carboxylic acid]
2 | < 0.2 nM | < 104 nM | O=C(O)CC1(C(=O)N[C@H]2Cc3ccccc3[C@H]3CCC[C@@H](C(=O)O)N3C2=O)Cc2ccccc2C1 (relative stereo) [102,353, [4S-[4α, 7α(R*), 12bβ]]-7-[(2-Carboxymethyl-indan-2-yl)carbonylamino]-1,2,3,4,6,7,8,12b-octahydro-6-oxopyrido[2,1-a][2]benzazepine-4-carboxylic acid]

— EP0534396B1, “2-Substituted indane-2-carboxyalkyl derivatives useful as inhibitors of enkephalinase and ace” (MERRELL PHARMACEUTICALS INC., priority 1991, dated 1993)
